According to patent US20040053826A1, “Uses of polypeptides” (priority 2000, published 2004):
Bridge positions count the residues as written; N and C are the ends. Ends that are not written are not given here.

How the values were obtained:
Wistar male rats [1] = test: Locomotion measurement: effects of diazepam on locomotion induced by intraventricular polypeptide (SEQ ID NO: 9) or PACAP38; assay type: in vivo, rat
Text: (§1) Each of Wistar male rats (8 weeks old) was anesthetized with pentobarbital and fixed on a stereotaxic apparatus. A guide cannula (AG-8, Eicom) was inserted into the lateral ventricle of each rat (AP: +8.1 mm, L: 1.8 mm, H: +7.1 mm). The rats were then allowed to recover for at least one week before the experiment. During the recovery period, handling was made every day to reduce stresses resulting from intraventricular administration.
The cannulated rats were transferred to a locomotion testing system (Supermex, Muromachi Kikai Co., Ltd.) and acclimatized overnight. The rats were transferred from the locomotion testing system and subcutaneously administered with diazepam (1 mg/kg). An hour later, the rats were intraventricularly administered with the polypeptide (SEQ ID NO: 9; 10 nmol) or PACAP38 (3 nmol) dissolved in phosphate buffered saline (PBS) at a flow rate of 2.5 μl/min for 4 minutes. Immediately after the administration, the rats were returned to the locomotion testing system and tested for their spontaneous locomotion (FIG. 4).

Wistar male rats [2] = test: Locomotion measurement (spontaneous locomotion and number of rearings) after administration into the lateral ventricle; assay type: in vivo, rat
Text: Wistar male rats (9 weeks old) were anesthetized with pentobarbital and a guide cannula (AG-8, Eicom) was inserted into the lateral ventricle of each rat (AP: +8.1 mm, L: 1.8 mm, H: +7.1 mm). The rats were then allowed to recover for at least one week before the experiment. During the recovery period, handling was made every day to reduce stresses resulting from intraventricular administration.
On the day before the experiment, the rats were transferred to a locomotion testing system for acclimation purposes. Under unanesthetized and unrestrained conditions, a microinjection cannula was attached to the guide cannula through which each rat was administered with the polypeptide (SEQ ID NO: 9; 10 nmol) dissolved in phosphate buffered saline (PBS) or PBS alone at a rate of 5 μl/min for 2 minutes. Immediately after the administration, the rats were returned to the locomotion testing system (Supermex, Muromachi Kikai Co., Ltd.) and tested for their spontaneous locomotion and the number of rearings (FIG. 1).
Wistar male rats (9 weeks old) were anesthetized with pentobarbital and a guide cannula (AG-8, Eicom) was inserted into the lateral ventricle of each rat (AP: 8.1 mm, L: 1.8 mm, H: 7.1 mm). The rats were then allowed to recover for at least one week before the experiment. During the recovery period, handling was made every day to reduce stresses resulting from intraventricular administration.
On the day before the experiment, the rats were transferred to a locomotion testing system for acclimation purposes. Under unanesthetized and unrestrained conditions, a microinjection cannula was attached to the guide cannula through which each rat was administered with the polypeptide (SEQ ID NO: 9; 1 nmol) dissolved in PBS or PBS alone in a volume of 10 μl (5 μl/min for 2 minutes). Immediately after the administration, the rats were returned to the locomotion testing system (Supermex, Muromachi Kikai Co., Ltd.) and tested for their spontaneous locomotion and the number of rearings (FIG. 2).
as §1
The cannulated rats were transferred to a locomotion testing system (Supermex, Muromachi Kikai Co., Ltd.) and acclimatized overnight. The rats were transferred from the locomotion testing system and intraventricularly administered with the polypeptide (SEQ ID NO: 9; 1 nmol or 10 nmol) dissolved in phosphate buffered saline (PBS) or PBS alone at a flow rate of 5 μl/min for 4 minutes. Immediately after the administration, the rats were returned to the locomotion testing system and tested for their spontaneous locomotion and the number of rearings.

C57BL/6N mice [3] = test: Elevated plus maze test; assay type: in vivo, mouse; conditions: for (Open arm entries)/(open arm entries + closed arm entries): 30 minutes after administration, tested over 5 minutes
Text: An acrylic maze having 4 arms (25 cm long, 8 cm wide) placed in the shape of a cross (elevated plus maze) was positioned in a sound-proof chamber under low illumination (0.5 lux). Two opposite arms of the elevated plus maze were enclosed by walls (closed arms) and the other two arms were wall-less (open arms). The maze was elevated 25 cm above the floor (FIG. 5).
After C57BL/6N mice were acclimatized in the laboratory, PBS containing the polypeptide (SEQ ID NO: 9; 1 nmol or 3 nmol) or PBS alone was administered in a volume of 5 μl into the lateral ventricle of each mouse using a double-needle (Matsumoto Seisakusho) under ether anesthesia. Thirty minutes after the administration, each mouse was placed on the elevated plus maze and tested over 5 minutes for the number of entries into each arm and the time spent on open arms.

C57BL/6N mice [4] = test: Hole board test; assay type: in vivo, mouse; conditions: 0.1, 0.3 or 3 nmol into the lateral ventricle, 30 minutes after administration, over 5 minutes
Protocol: A polyvinyl chloride box having 4 holes (diameter: 3.8 cm) at its bottom was used as a hole board. Locomotion on the hole board was measured with a Supermex sensor (Muromachi Kikai Co., Ltd.). To measure the number of head dippings, MRS-110RX infrared-scanning sensors (Muromachi Kikai Co., Ltd.) were provided immediately below the respective holes.
After C57BL/6N mice were acclimatized in the laboratory, PBS containing the polypeptide (SEQ ID NO: 9; 0.1 nmol, 0.3 nmol or 3 nmol) or PBS alone was administered in a volume of 5 μl into the lateral ventricle of each mouse using a double-needle (Matsumoto Seisakusho) under ether anesthesia. Thirty minutes after the administration, each mouse was placed in the center of the hole board and tested over 5 minutes for locomotion and the number of head dippings.

[5] = Example 1, 10 nmol into the lateral ventricle
[6] = Example 2, 1 nmol into the lateral ventricle
[7] = Example 3, 10 nmol intraventricularly

CN1C(=O)CN=C(c2ccccc2)c2cc(Cl)ccc21 [Diazepam, diazepam]
effect on the increase in locomotion induced by PACAP38 (Wistar male rats [1]; diazepam 1 mg/kg subcutaneously 1 hour before PACAP38 3 nmol intraventricularly): dose not affect | effect on the increase in locomotion induced by the polypeptide (SEQ ID NO: 9) (Wistar male rats [1]; diazepam 1 mg/kg subcutaneously 1 hour before polypeptide (SEQ ID NO: 9) 10 nmol intraventricularly): significantly inhibits

PACAP38: PACAP38 known to have the ability to increase locomotion (HSDGIFTDSYSRYRKQMAVKKYLAAVLGKRYKQRVKNK; ends and bridges not checked; UniProt P18509 132-169, looked up)
spontaneous locomotion (Wistar male rats [1]; PACAP38 3 nmol intraventricularly): increase in locomotion

polypeptide (SEQ ID NO: 9): bovine SENR ligand peptide; the 6th and 11th cysteine residues form an intramolecular disulfide bond (GPSSECFWKYCV; disulfide 6-11)
locomotion after the initial decrease (Wistar male rats [2]; [5]): increase in their locomotion | number of rearings (Wistar male rats [2]; [5]): same effects as found in spontaneous locomotion | spontaneous locomotion immediately after the administration, as compared with the control rats (Wistar male rats [2]; [5]): tended to decrease | inhibition against a transient increase in locomotion as observed in 10 nmol administration (Wistar male rats [2]; [6]): did not show such an inhibition | locomotion from immediately after the administration (Wistar male rats [2]; [6]): increase in their locomotion | locomotion and the number of rearings from immediately after the administration (Wistar male rats [2]; Example 3, 1 nmol intraventricularly): increases | duration of the decreases in locomotion and number of rearings (Wistar male rats [2]; [7]): about 10 minutes | duration of the increase in locomotion (Wistar male rats [2]; [7]): about 1 hour | locomotion and the number of rearings immediately after the administration (Wistar male rats [2]; [7]): decreases | locomotion following the transient decrease (Wistar male rats [2]; [7]): increase in locomotion | number of rearings (Wistar male rats [2]; Example 3, 10 nmol intraventricularly, less significant tendency to increase): 51.0±13.4 times/90 min | (Open arm entries)/(open arm entries + closed arm entries) (C57BL/6N mice [3]; 1 nmol into the lateral ventricle, n=20): 0.131 ± 0.009 | probability to select open arms (C57BL/6N mice [3]; 1 nmol or 3 nmol into the lateral ventricle): reduced | (Open arm entries)/(open arm entries + closed arm entries) (C57BL/6N mice [3]; 3 nmol into the lateral ventricle, n=20, *p < 0.05, Dunnett): 0.065 ± 0.018* | locomotion on the hole board (C57BL/6N mice [4]): no change | number of head dippings (C57BL/6N mice [4]): significant decrease
